Source: US20260315464A1, “COMPOSITIONS, METHODS, AND SYSTEMS FOR MODULATING SPLICING OF MSH3” (REVIR THERAPEUTICS, INC., priority 2023, published 2026)

Test system: MSH3
Assay: QPCR assay for levels of MSH3 upon compound treatment in HEK293T or AD293 cells (fold-change of MSH3 transcript, EC50 of MSH3 downregulation; total MSH3 exons 13/14, exons 20/21; Table 8)
Type: cell-based
Conditions: for mrna remaining at 1 µM / mrna remaining at 10 µM: Homo sapiens, fold-change of the MSH3 transcript, normalized to GAPDH; for mrna remaining at 1 µM: 1 μM compound; for mrna remaining at 10 µM: 10 μM compound; for EC50: EC50 of MSH3 downregulation, XtalPi
In short: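 MSH3 mRNA was quantified by TaqMan qPCR covering exons 13/14, exons 20/21, exon 13/PE14A and exon 20/PE21A, with GAPDH as reference. Cells used were HEK293T or AD293, treated with compound at 1 μM and […].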

| Structure (SMILES) | mrna remaining at 1 µM | mrna remaining at 10 µM | EC50 |
| --- | --- | --- | --- |
| [2H]C([2H])([2H])n1cc(-c2ccc3c(c2)C(=O)N(c2ccc(N(C)[C@H]4C[C@]5(C)CC[C@](C)(C4)N5)nn2)C3)cn1 [Compound 387, 2-(6-(((1R,3s,5S)-1,5-dimethyl-8-azabicyclo[3.2.1]octan-3-yl)(methyl)amino)pyridazin-3-yl)-6-(1-(methyl-d3)-1H-pyrazol-4-yl)isoindolin-1-one] | 96% | 63% |  |
| Cc1nn(C)nc1-c1cnc2c(c1)C(=O)N(c1ccc(N(C)C3CC(C)(C)NC(C)(C)C3)nn1)C2 [Compound 180, 3-(2,5-dimethyl-2H-1,2,3-triazol-4-yl)-6-(6-(methyl(2,2,6,6-tetramethylpiperidin-4-yl)amino)pyridazin-3-yl)-6,7-dihydro-5H-pyrrolo[3,4-b]pyridin-5-one] | 50% | 8% | 1120 nM |
| Cn1ncc(-c2cnc3c(c2)C(=O)N(c2ccc(OC4CC(C)(C)NC(C)(C)C4)nn2)C3)n1 [Compound 191, 3-(2-methyl-2H-1,2,3-triazol-4-yl)-6-(6-((2,2,6,6-tetramethylpiperidin-4-yl)oxy)pyridazin-3-yl)-6,7-dihydro-5H-pyrrolo[3,4-b]pyridin-5-one] | 45% | 17% |  |
| Cc1nn(C)cc1-c1cnc2c(c1)C(=O)N(c1ccc(N(C3CC3)C3CC(C)(C)NC(C)(C)C3)nn1)C2 [Compound 487, 6-(6-(cyclopropyl(2,2,6,6-tetramethylpiperidin-4-yl)amino)pyridazin-3-yl)-3-(1,3-dimethyl-1H-pyrazol-4-yl)-6,7-dihydro-5H-pyrrolo[3,4-b]pyridin-5-one] | 133% | 31% |  |
| Cn1cc(-c2cnc3c(c2)C(=O)N(c2ccc(OC4CC(C)(C)NC(C)(C)C4)nn2)C3)c(C(F)(F)F)n1 [Compound 176, 3-(1-methyl-3-(trifluoromethyl)-1H-pyrazol-4-yl)-6-(6-((2,2,6,6-tetramethylpiperidin-4-yl)oxy)pyridazin-3-yl)-6,7-dihydro-5H-pyrrolo[3,4-b]pyridin-5-one] | 94% | 110% |  |
| Cc1nn(C)cc1-c1cc2c(c(Cl)n1)CN(c1ccc(O[C@H]3C[C@]4(C)CC[C@](C)(C3)N4)nn1)C2=O [Compound 93, 4-chloro-6-(1,3-dimethyl-1H-pyrazol-4-yl)-2-(6-(((1R,3s,5S)-1,5-dimethyl-8-azabicyclo[3.2.1]octan-3-yl)oxy)pyridazin-3-yl)-2,3-dihydro-1H-pyrrolo[3,4-c]pyridin-1-one] | 91% | 72% |  |
| Cc1nn(C)nc1-c1cc(Cl)c2c(c1)C(=O)N(c1ccc(N(C)[C@H]3C[C@]4(C)CC[C@](C)(C3)N4)nn1)C2 [Compound 660, 4-chloro-6-(2,5-dimethyl-2H-1,2,3-triazol-4-yl)-2-(6-(((1R,3s,5S)-1,5-dimethyl-8-azabicyclo[3.2.1]octan-3-yl)(methyl)amino)pyridazin-3-yl)isoindolin-1-one] | 101% | 50% |  |
| Cc1nn(C)cc1-c1cnc2c(c1)C(=O)N(c1cnc(N(C)[C@H]3C[C@]4(C)CC[C@](C)(C3)N4)nn1)C2 [Compound 175, 3-(1,3-dimethyl-1H-pyrazol-4-yl)-6-(3-(((1R,3s,5S)-1,5-dimethyl-8-azabicyclo[3.2.1]octan-3-yl)(methyl)amino)-1,2,4-triazin-6-yl)-6,7-dihydro-5H-pyrrolo[3,4-b]pyridin-5-one] | 93% | 70% |  |
| Cc1nn(C)nc1-c1cc(Cl)c2c(c1)C(=O)N(c1ccc(OC3CC(C)(C)NC(C)(C)C3)nn1)C2 [Compound 664, 4-chloro-6-(2,5-dimethyl-2H-1,2,3-triazol-4-yl)-2-(6-((2,2,6,6-tetramethylpiperidin-4-yl)oxy)pyridazin-3-yl)isoindolin-1-one] | 94% | 20% |  |
| Cc1nn(C)nc1-c1cc(F)c2c(c1)C(=O)N(c1ccc(O[C@H]3C[C@]4(C)CC[C@](C)(C3)N4)nn1)C2 [Compound 283, 6-(2,5-dimethyl-2H-1,2,3-triazol-4-yl)-2-(6-(((1R,3s,5S)-1,5-dimethyl-8-azabicyclo[3.2.1]octan-3-yl)oxy)pyridazin-3-yl)-4-fluoroisoindolin-1-one] | 48% | 11% | 799 nM |
| Cn1nc(Cl)c(-c2cc(C#N)c3c(c2)C(=O)N(c2ccc(OC4CC(C)(C)NC(C)(C)C4)nn2)C3)n1 [Compound 680, 6-(5-chloro-2-methyl-2H-1,2,3-triazol-4-yl)-1-oxo-2-(6-((2,2,6,6-tetramethylpiperidin-4-yl)oxy)pyridazin-3-yl)isoindoline-4-carbonitrile] | 94% | 31% |  |
| COc1cc(-c2nn(C)nc2Cl)cc2c1CN(c1ccc(N(C)[C@H]3C[C@]4(C)CC[C@](C)(C3)N4)nn1)C2=O [Compound 686, 6-(5-chloro-2-methyl-2H-1,2,3-triazol-4-yl)-2-(6-(((1R,3s,5S)-1,5-dimethyl-8-azabicyclo[3.2.1]octan-3-yl)(methyl)amino)pyridazin-3-yl)-4-methoxyisoindolin-1-one] | 109% | 26% |  |
| Cc1nn(C)cc1-c1cc2c(cn1)CN(c1ccc(O[C@H]3C[C@]4(C)CC[C@](C)(C3)N4C)nn1)C2=O [Compound 94, 6-(1,3-dimethyl-1H-pyrazol-4-yl)-2-(6-(((1R,3s,5S)-1,5,8-trimethyl-8-azabicyclo[3.2.1]octan-3-yl)oxy)pyridazin-3-yl)-2,3-dihydro-1H-pyrrolo[3,4-c]pyridin-1-one] | 106% | 79% |  |
| Cc1nn(C)nc1-c1cc(F)c2c(c1)C(=O)N(c1ccc(N(C)[C@H]3C[C@]4(C)CC[C@](C)(C3)N4)nn1)C2 [Compound 294, 6-(2,5-dimethyl-2H-1,2,3-triazol-4-yl)-2-(6-(((1R,3s,5S)-1,5-dimethyl-8-azabicyclo[3.2.1]octan-3-yl)(methyl)amino)pyridazin-3-yl)-4-fluoroisoindolin-1-one] | 27% | 12% | 480 nM |
| Cc1nn(C)nc1-c1cc(F)c2c(c1)C(=O)N(c1ccc(N3CCN[C@@H](C(C)(C)C)C3)nn1)C2 [Compound 298, (S)-2-(6-(3-(tert-butyl)piperazin-1-yl)pyridazin-3-yl)-6-(2,5-dimethyl-2H-1,2,3-triazol-4-yl)-4-fluoroisoindolin-1-one] | 89% | 29% |  |
| CC(C)(O)Cn1cc(-c2cc3c(cn2)CN(c2ccc(O[C@H]4C[C@]5(C)CC[C@](C)(C4)N5)nn2)C3=O)cn1 [Compound 594, 2-(6-(((1R,3s,5S)-1,5-dimethyl-8-azabicyclo[3.2.1]octan-3-yl)oxy)pyridazin-3-yl)-6-(1-(2-hydroxy-2-methylpropyl)-1H-pyrazol-4-yl)-2,3-dihydro-1H-pyrrolo[3,4-c]pyridin-1-one] | 79% | 112% |  |
| CN(c1ncc(N2Cc3ccc(-c4cnn(C)n4)cc3C2=O)nn1)[C@H]1C[C@]2(C)CC[C@](C)(C1)N2 [Compound 429, 2-(3-(((1R,3s,5S)-1,5-dimethyl-8-azabicyclo[3.2.1]octan-3-yl)(methyl)amino)-1,2,4-triazin-6-yl)-6-(2-methyl-2H-1,2,3-triazol-4-yl)isoindolin-1-one] | 102% | 52% |  |
| CN(c1ccc(N2Cc3c(C#N)cc(-c4nnn(C)n4)cc3C2=O)nn1)[C@H]1C[C@]2(C)CC[C@](C)(C1)N2 [Compound 693, 2-(6-(((1R,3s,5S)-1,5-dimethyl-8-azabicyclo[3.2.1]octan-3-yl)(methyl)amino)pyridazin-3-yl)-6-(2-methyl-2H-tetrazol-5-yl)-1-oxoisoindoline-4-carbonitrile] | 94% | 40% |  |
| Cc1nn(C)nc1-c1cnc2c(c1)C(=O)N(c1ccc(N3CCN[C@@H](C(C)(C)C)C3)nn1)C2 [Compound 600, (S)-6-(6-(3-(tert-butyl)piperazin-1-yl)pyridazin-3-yl)-3-(2,5-dimethyl-2H-1,2,3-triazol-4-yl)-6,7-dihydro-5H-pyrrolo[3,4-b]pyridin-5-one] | 104% | 14% |  |
| Cc1nn(C)cc1-c1cnc2c(c1)C(=O)N(c1ccc(OC3CCNC(C)(C)C3)nn1)C2 (centres unmarked) [Compound 226, 3-(1,3-dimethyl-1H-pyrazol-4-yl)-6-(6-((2,2-dimethylpiperidin-4-yl)oxy)pyridazin-3-yl)-6,7-dihydro-5H-pyrrolo[3,4-b]pyridin-5-one] | 86% | 58% |  |
| Cc1nn(C)cc1-c1ccc2c(c1)C(=O)N(c1ccc(OC3CC(C)(C)NC4(CC4)C3)nn1)C2 (centres unmarked) [Compound 438, 6-(1,3-dimethyl-1H-pyrazol-4-yl)-2-(6-((5,5-dimethyl-4-azaspiro[2.5]octan-7-yl)oxy)pyridazin-3-yl)isoindolin-1-one] | 109% | 81% |  |
| CN(c1ccc(N2Cc3ncc(-c4nn(C)nc4Cl)cc3C2=O)nn1)[C@H]1C[C@]2(C)CC[C@](C)(C1)N2 [Compound 589, 3-(5-chloro-2-methyl-2H-1,2,3-triazol-4-yl)-6-(6-(((1R,3s,5S)-1,5-dimethyl-8-azabicyclo[3.2.1]octan-3-yl)(methyl)amino)pyridazin-3-yl)-6,7-dihydro-5H-pyrrolo[3,4-b]pyridin-5-one] | 20% | 11% | 349 nM |
| Cn1ncc(-c2ccc3c(c2)C(=O)N(c2ccc(OC4CC(C)(C)NC(C)(C)C4)nn2)C3)n1 [Compound 362, 6-(2-methyl-2H-1,2,3-triazol-4-yl)-2-(6-((2,2,6,6-tetramethylpiperidin-4-yl)oxy)pyridazin-3-yl)isoindolin-1-one] | 65% | 75% |  |
